A word on the pKi: it is the negative decadic logarithm of the Ki, by convention in mol/L.

Common to all, as to type: cell-based
In test [1] the target is 5-hydroxytryptamine receptor 2A (Homo sapiens, UniProt P28223). Put plainly: Displacement of [3H]ketanserin from 5-hydroxytryptamine 2A receptor expressed NIH3T3 cells.
In the next test the target is D(2) dopamine receptor (Mus musculus, UniProt P61168). Kind of test: Binding affinity to Dopamine receptor D2 using [3H]spiperone as radioligand in stably transfected NIH3T3 cells.
Test [2] addresses Sodium-dependent noradrenaline transporter (Mus musculus, UniProt O55192). Put plainly: Binding affinity to Norepinephrine transporter using [3H]-[…] as radioligand in stably transfected NIH3T3 cells.
Test [3] addresses T1, 5-hydroxytryptamine receptor 2C (Mus musculus, UniProt P34968).
T1 sequence (P34968 whole entry): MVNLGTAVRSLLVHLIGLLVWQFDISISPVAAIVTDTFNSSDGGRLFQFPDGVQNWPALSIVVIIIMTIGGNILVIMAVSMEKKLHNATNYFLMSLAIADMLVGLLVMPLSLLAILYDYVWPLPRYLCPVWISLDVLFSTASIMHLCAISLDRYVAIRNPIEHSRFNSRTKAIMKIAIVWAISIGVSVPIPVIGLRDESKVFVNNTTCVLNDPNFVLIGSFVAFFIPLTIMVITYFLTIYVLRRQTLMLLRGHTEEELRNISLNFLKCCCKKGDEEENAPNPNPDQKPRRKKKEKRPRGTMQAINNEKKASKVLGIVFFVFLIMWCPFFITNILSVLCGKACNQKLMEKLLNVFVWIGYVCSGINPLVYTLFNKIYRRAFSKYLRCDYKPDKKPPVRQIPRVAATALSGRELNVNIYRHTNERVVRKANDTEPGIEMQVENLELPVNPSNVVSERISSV
Put plainly: Binding affinity to 5-hydroxytryptamine 2C receptor measured using radioligand [3H]Mesulergine in stably transfected NIH3T3 cells.

In test [4] the target is Sodium-dependent serotonin transporter (Mus musculus, UniProt Q60857). Put plainly: Binding affinity to Serotonin transporter using [3H]-paroxetine as radioligand in stably transfected NIH3T3 cells.
Test [5] deals with T1, 5-hydroxytryptamine receptor 2C. Put plainly: Binding affinity to 5-hydroxytryptamine 2C receptor using [3H]Mesulergine as radioligand in stably transfected NIH3T3 cells.

pKi: −log10 of the molar value. A value given as a limit tells only on which side of the number the result lay.

Sequence of 5-hydroxytryptamine receptor 2A (P28223 whole entry): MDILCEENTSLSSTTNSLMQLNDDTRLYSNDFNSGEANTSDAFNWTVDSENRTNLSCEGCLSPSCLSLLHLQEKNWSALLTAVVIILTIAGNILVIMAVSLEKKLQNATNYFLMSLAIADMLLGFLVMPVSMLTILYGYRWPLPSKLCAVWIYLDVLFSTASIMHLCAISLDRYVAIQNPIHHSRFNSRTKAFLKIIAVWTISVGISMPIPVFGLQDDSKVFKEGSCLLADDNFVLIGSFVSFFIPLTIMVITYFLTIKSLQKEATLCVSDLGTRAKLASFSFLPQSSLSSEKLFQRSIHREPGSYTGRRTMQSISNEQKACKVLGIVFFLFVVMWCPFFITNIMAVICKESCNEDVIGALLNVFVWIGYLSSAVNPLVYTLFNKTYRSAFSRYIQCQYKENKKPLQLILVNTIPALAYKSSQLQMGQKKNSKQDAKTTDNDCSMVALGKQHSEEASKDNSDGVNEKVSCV
Sequence of D(2) dopamine receptor (P61168 whole entry): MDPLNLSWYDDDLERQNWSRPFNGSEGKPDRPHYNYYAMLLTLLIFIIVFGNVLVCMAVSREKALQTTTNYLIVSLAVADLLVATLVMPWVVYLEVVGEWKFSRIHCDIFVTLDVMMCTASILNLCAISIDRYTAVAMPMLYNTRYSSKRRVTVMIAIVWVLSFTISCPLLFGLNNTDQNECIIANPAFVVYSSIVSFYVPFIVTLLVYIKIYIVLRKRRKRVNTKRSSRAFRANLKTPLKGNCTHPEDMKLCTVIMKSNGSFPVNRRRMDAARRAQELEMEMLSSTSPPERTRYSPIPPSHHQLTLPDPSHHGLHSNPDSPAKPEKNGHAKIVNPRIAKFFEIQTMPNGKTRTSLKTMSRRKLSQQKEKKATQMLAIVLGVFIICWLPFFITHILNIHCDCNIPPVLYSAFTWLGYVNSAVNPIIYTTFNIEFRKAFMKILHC
Sequence of Sodium-dependent noradrenaline transporter (O55192 whole entry): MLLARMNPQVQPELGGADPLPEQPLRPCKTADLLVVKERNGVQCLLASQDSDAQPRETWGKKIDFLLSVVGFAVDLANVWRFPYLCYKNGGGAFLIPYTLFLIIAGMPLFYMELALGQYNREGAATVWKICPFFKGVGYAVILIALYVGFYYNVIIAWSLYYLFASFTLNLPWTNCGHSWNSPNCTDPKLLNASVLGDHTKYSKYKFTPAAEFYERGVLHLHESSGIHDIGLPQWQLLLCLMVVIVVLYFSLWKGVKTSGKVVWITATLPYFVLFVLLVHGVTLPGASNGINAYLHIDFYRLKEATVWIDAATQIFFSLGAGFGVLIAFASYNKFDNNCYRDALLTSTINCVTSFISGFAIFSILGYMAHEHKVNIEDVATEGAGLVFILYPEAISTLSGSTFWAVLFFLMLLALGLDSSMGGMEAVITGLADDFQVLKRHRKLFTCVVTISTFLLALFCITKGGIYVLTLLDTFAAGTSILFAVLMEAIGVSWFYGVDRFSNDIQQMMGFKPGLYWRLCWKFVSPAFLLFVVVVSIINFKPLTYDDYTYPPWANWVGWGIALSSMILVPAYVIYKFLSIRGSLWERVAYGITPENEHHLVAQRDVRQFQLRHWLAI
Sequence of Sodium-dependent serotonin transporter (Q60857 whole entry): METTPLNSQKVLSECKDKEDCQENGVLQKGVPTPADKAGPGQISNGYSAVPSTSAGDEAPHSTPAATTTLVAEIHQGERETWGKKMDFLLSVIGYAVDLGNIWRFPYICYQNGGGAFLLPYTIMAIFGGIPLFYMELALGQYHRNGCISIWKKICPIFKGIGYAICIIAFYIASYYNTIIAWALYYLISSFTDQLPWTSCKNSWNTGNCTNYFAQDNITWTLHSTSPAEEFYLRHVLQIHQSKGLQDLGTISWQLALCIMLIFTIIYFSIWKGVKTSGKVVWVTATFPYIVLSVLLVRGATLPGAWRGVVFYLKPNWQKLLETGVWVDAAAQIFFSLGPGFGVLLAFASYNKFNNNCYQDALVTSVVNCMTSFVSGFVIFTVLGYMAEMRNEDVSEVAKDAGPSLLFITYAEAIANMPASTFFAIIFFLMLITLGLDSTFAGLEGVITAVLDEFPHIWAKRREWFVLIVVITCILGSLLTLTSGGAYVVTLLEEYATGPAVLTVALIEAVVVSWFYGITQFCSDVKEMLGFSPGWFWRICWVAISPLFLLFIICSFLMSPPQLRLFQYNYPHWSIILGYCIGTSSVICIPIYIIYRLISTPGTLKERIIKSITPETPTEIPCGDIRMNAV

`NCCCN1c2ccccc2CCc2ccccc21` had a pKi in test [1] of 6.40.

The molecule `C[N+](C)(C)CC1c2ccccc2Cc2ccccc21` showed a negative-log Ki (pKi) in test [1] of 5.40. This pKi is 1.00 log units lower than that of the molecule before.

`NCCCC1c2ccccc2Cc2ccccc21` had a pKi in test [1] of 7.49.

As for `NC1c2ccccc2Cc2ccccc21`, the pKi in test [1] is 4.92.

As to `NCCC1c2ccccc2Cc2ccccc21`, the pKi in test [1] is 6.32. Compared with the last molecule, the pKi is 1.40 log units higher.

As for `CN(C)CC1c2ccccc2Cc2ccccc21`, the pKi in test [1] was 6.27.

As for `CN(C)CCCC1c2ccccc2Cc2ccccc21`, the pKi in test [1] was 7.66.

`CNCCCC1c2ccccc2Cc2ccccc21` gave a negative logarithm of the Ki (pKi) in test [1] of 7.89.

Take `c1ccc(CNCC2c3ccccc3Cc3ccccc32)cc1`: the pKi in test [1] was 6.14.

On to `NCC1c2ccccc2Cc2ccccc21`, for which the negative logarithm of the Ki (pKi) at D(2) dopamine receptor is below 5.00; in test [2], below 5.00; in test [3], 7.37; in test [4], below 5.00.

In the case of `CNCC1c2ccccc2Cc2ccccc21`, the pKi in test [1] was 7.28.

As for `CN1CCC(=C2c3ccccc3C=Cc3ccccc32)CC1` [CYPROHEPTADINE], the pKi at D(2) dopamine receptor is 6.95; in test [2] it was 6.54; in test [5] it was 7.96; in test [4], 5.39.

Molecule `CN(C)CCCN1c2ccccc2CCc2ccccc21` [IMIPRAMINE] gave a pKi at D(2) dopamine receptor of 6.14.

Source of the values: ChEMBL document CHEMBL1134215, “Influence of chain length and N-alkylation on the selective serotonin receptor ligand 9-(aminomethyl)-9,10-dihydroanthracene” (Bioorg Med Chem Lett, 2001).
